Results: patent US5395611A, “Phenolic amine depigmenting and antimelanoma agents” (The Governors of the University of Alberta, priority 1992, dated 1995)
“Also recorded” adds a separate entry of the source.

Key:
melanoma = conditions: in words; cited from earlier work
black hair follicles = test: Depigmentation of new hair (eumelanin/PTCA content); type: in vivo, C57BL/6J black mice; conditions: for Depigmentation / PTCA Content: 300 mg/kg daily for 14 days, hair day 22; for Depigmentation of new growth of black hair follicles: in words
Method: Female progeny were used in this testing when approximately 8 weeks old and weighing 17 grams.
Thirty mice were randomized into 6 groups of 5 (1 control and 1 for each compound). Starting on day 1, daily for 14 days the agent was injected i.p. or was infiltrated s.c. in an area where hair follicles had been plucked; the dose was 300 mg/kg body weight.
In the same 30 mice, hair follicles were harvested on day 22 (early telogen phase) and their eumelanin content analyzed. […] Briefly, a 10-mg hair sample is homogenized in water at a concentration of 10 mg/ml; the 200-μl homogenate is transferred to a screw-capped test tube, mixed with 1M H2 SO4 (800 μL) and oxidized with 3% KMnO4. The product, pyrrole-2,3,5-tricarboxylic acid (PTCA), is analyzed by HPLC with a UVL detector; samples are measured in duplicate. The eumelanin content is expressed as PTCA (ng/mg) against the PCTA content of BALB/c albino mice as control (≤10 ng/mg, the background value with our method, in which 1 ng corresponds roughly to a eumelanin content of 50 ng), and the degree of depigmentation is expressed as a percentage: (PTCA content of control sample minus PTCA content of experimental sample)/(PCTA content of control sample)×100.

follicular melanocytes = conditions: in words; cited from earlier work
[1] = acute toxicity, evaluated 100 to 1600 mg/Kg (Miura et al); cited from earlier work
melanocytes = test: Light and electron microscopy of follicular melanocytes; type: in vivo, mice; conditions: for Cytotoxicity for follicular depigmentation: conclusion in words; for Electron microscopy of melanocytes/melanosomes: 10 days
Method: In […] of 4 mice (1 control and 1 for each compound) were treated daily with the control or compound injected i.p. The compounds tested were 4-S-CAP, N-Ac-4-S-CAP and α-Me-4-S-CAP. Samples of skin and regrowing hair follicles were excised under brief general anaesthesia on day 10 (late anagen phase), fixed in Karnovsky's solution (2.5% glutaraldehyde and 2.5% paraformaldehyde in 011M cacodylate buffer), and refixed in 1% osmium tetroxide in cadodylate buffer. Tissues were stained en bloc with 1.5% uranyl acetate in o.1M veronal buffer for 30 min, dehydrated in graded ethanol solutions, embedded in epoxy resin, and sectioned with a Potter-Blum ultramicrotome MT II. Sections 1.0 μm thick were stained with methylene blue for light microscopy, thin sections were stained with led citrate for electron microscopy.

B16 melanoma = test: In vivo growth inhibition of s.c. inoculated B16 melanoma; parameters: species or system mouse
Method: Briefly, excised tumours were homogenized in normal saline.
The in vivo antimelanoma effect of the compounds were evaluated by percent growth inhibition of inoculated tumour (% g.i.). The percent g.i. was computed from the mean tumour volume at day 12 or 13 of the experiments; i.e., 100× (1- treated group/control group). Tumour volume was calculated by the following formula:
tumour volume=long axis×(short axis)^2 ×1/2.

[2] = test system: plasma monoamine oxidase (MAO); test: Enzyme kinetics for monoamineoxidase (plasma MAO); type: biochemical; conditions: in words
Method: (§1) Mushroom tyrosinase (400 units/mg) and plasma MAO (1000 units/gm) were obtained from Sigma Chemical Co. (St. Louis, Mo., USA). A reaction mixture consisted of a substrate of 7 to 8 different concentrations (40 to 500 μM for mushroom tyrosinase and 20 to 200 μM for MAO) and of either mushroom tyrosinase (2.5 μg) or MAO (10 μg) in 1.0 mL of 0.05M sodium phosphate buffer, pH 6.8 and 7.4 respectively. The reactions were carried out at 37° C. in a shaking water bath, and stopped by taking 100 μL of the reaction mixture and adding it to 900 μL of 0.4M HCLO4. The disappearance of substrate was followed using HPLC (high pressure liquid chromatography) Km and Vmax values were calculated from the Lineweaver-Burk plots.

[3] = Urinary excretion after i.p. injection (metabolic assay); type: in vivo, mice
Method: Fifteen mice randomly divided into three groups of five were injected i.p. with a test agent (300 mg/kg) dissolved in N saline solution. Group 1 were injected with 4-S-CAP, group 2 with N-Ac-4-S-CAP, group 3 were controls. The mice are kept in metabolic cages; their urine is collected 3, 8 and 24 hr after injection, and the 4-S-CAP and N-Ac-4-S-CAP content is measured by HPLC in a system consisting of a Waters 600E liquid chromatography, with a Bondapak C18 column (3.0×300 mm; particle size, 10 μm) and a Waters 460 electrochemical detector. Mobile phase: 0.1M potassium phosphate buffer, pH 2.1, containing 0.1 mM Na2 EDTA methanol, 80:20 (v/v); column temperature, 60° C.; flow rate 1.0 ml/min. Urine samples are hydrolysed with 0.1M HCl before assay, and the phenols are detected at 850 mV against an Ag/AgCl reference electrode.

mushroom tyrosinase = test: Enzyme kinetics for tyrosinase; type: biochemical; conditions: in words
Method: as §1
^a mushroom tyrosinase; 11 unit/ml of tyrosinase was used. One enzyme
unit will cause an increase in A280 of 0.001 per min at pH 6.8 at
25° C. using Ltyrosine as substrate.

in vivo = conditions: mouse
Method: 3:1-85 1972. In accordance with this Protocol, ten to fifteen mice were used in each test group. They were weighed and randomized at day one after s.c. inoculation of B16 melanoma cells. From day five, the phenolic melanin precursors were administered i.p. daily for nine days. The test compounds were dissolved in normal saline, and sterilized by heating to 100° C. for 2 minutes. […] They were administered j.p. with the following doses: 400 mg/Kg - 4-S-CAP; 200 to 300 mg/Kg - 4-S-CAP; and 200 to 1200 mg/Kg - N-Ac-4-S-CAP. A catalytic amount of L-dopa, 25 mg/Kg and antidecarboxylase, carbidopa, 400 mg/Kg, were also administered. Carbidopa was given one hour prior to L-dopa administration. DTIC (NSC 4538) was used as a control drug at a dose of 60 mg/Kg. Acute toxicity of 4-S-CP and 4-S-CAP was evaluated from 100 to 1600 mg/Kg.
The B16 mouse melanoma was maintained by s.c. inoculation of tumour cells into the back of C57BL7J mice (5 to 6 weeks, female). […] Briefly, excised tumours were homogenized in normal saline. The homogenized tumour cells were then passed through a sterile 80 mesh stainless steel screen, washed with normal saline, centrifuged (500 g. for 10 minutes) and resuspended in normal saline. Suspensions of viable melanoma cells at the concentration of 1×10^6 per 0.1 ml were inoculated s.c. into both the right and left inguinal areas of C57BL/6J mice (female, 5 to 6 weeks old, 18 to 20 gm).

B16F10 melanoma colonies = test: Melanoma-colony formation in the lungs; type: in vivo, mouse
Method: Murine B16F10 melanoma cell line with a strong metastatic property to form tumour colonies in the lungs was obtained from Dr. Longenecker, Department of Immunology, University of Alberta. Such cell line is well recognized and readily available as reported in Miura et al, supra. The cells were grown in T-75 flasks in dulbecco's MEM available from Gipco Lab Inc., Grand Island, N.Y., supplemented with 10% fetal calf serum, also obtained from Gipco, penicillin (100 μ/ml) and streptomycin (100 μg/ml). The cells were incubated at 37° C. in humidified atmosphere of 5% CO2 in air. […] Viable cells were identified by trypan blue dye exclusion and counted. The cell suspension was diluted to the desired concentration. […] On day zero, the mice were inoculated via the lateral tail vein with 5×10^4 cells in 0.2 ml of N saline. The test drugs were dissolved in normal saline, sterilized by membrane filtration, and administered in a dose of 300 mg/Kg (4 -S-CAP) or 900 mg/Kg (N-Ac-4-S-CAP); starting on day five, the control solution or drug was injected i.p. daily for 14 days. On day 26, the mice were killed by cervical dislocation, their lungs were removed, and the number of melanoma colonies was counted under a dissecting microscope. The results were expressed as percentage reduction in the number of colonies: [a-b/a]×100, where a=colonies in control group and b=colonies in experimental group.

[4] = hydroquinone preparations; cited from earlier work
skin = conditions: cited from earlier work

Compound: COC(=O)C(N)CSc1ccc(O)cc1 (stereo not drawn) [methyl ester of 4-S-CP]
- Inhibition of melanoma growth (melanoma): some inhibition of melanoma growth, although not as active as the 4-S-CAP

Compound: CN(C)CCSc1ccc(O)cc1 [N,N-DiMe-4-S-CAP]
- Depigmentation (black hair follicles; i.p.): 7.3%
- PTCA Content (black hair follicles; i.p.): 1009.0 ± 193.5 ng/mg
- Depigmentation of new growth of black hair follicles (black hair follicles): the lowest; also recorded: no significant depigmentation
- Depigmentation of new growth of black hair follicles (black hair follicles; listed as N,N-Di-Me-4-S-CAP): no visible changes in pigmentation in new follicles
- Depigmentation (black hair follicles; s.c.): 6.1%
- PTCA Content (black hair follicles; s.c.): 1023.4 ± 110.1 ng/mg

Compound: NC(CSc1ccc(O)cc1)C(=O)O (stereo not drawn) [4-S-CP, 4-S-cysteinylphenol]
- Effect on black hair follicles / black hair (follicular melanocytes): depigmentation of black hair as manifested by loss of functioning melanocytes
- Lethal dose [1]: 600 mg/kg
- Inhibition of melanoma growth (melanoma): some inhibition of melanoma growth, although not as active as the 4-S-CAP

Compound: NCCCSc1ccc(O)cc1 [4-S-HomoCAP]
- Depigmentation of new growth of black hair follicles (black hair follicles): much more depigmentation when given s.c. than i.p.
- PTCA Content (black hair follicles; s.c.): 397.7 ± 279.3 ng/mg

Compound: CC(=O)NCCSc1ccc(O)cc1 [N-Ac-4-S-CAP, N-ACETYL-4-S-CYSTEAMINYLPHENOL]
- Depigmentation of new growth of black hair follicles (black hair follicles): most marked; also recorded: no statistically significant difference in melanin content between hair follicles with N-Ac-4-S-CAP and control albino mice
- Cytotoxicity for follicular depigmentation (melanocytes): greatest cytotoxicity for follicular depigmentation
- Electron microscopy of melanocytes/melanosomes (melanocytes; i.p.): no melanocytes or melanosomes were visible
- Light microscopy of hair follicles (melanocytes; i.p., day 10): neither functioning melanocytes nor melanin pigments remained in the follicles
- % Gi (growth inhibition) (B16 melanoma; Experiment I, 200 mg/Kg): 39.8%
- % Gi (growth inhibition) (B16 melanoma; Experiment I, 400 mg/Kg): 57.3%
- % Gi (growth inhibition) (B16 melanoma; Experiment I, 600 mg/Kg): 63.18%
- % Gi (growth inhibition) (B16 melanoma; Experiment I, 800 mg/Kg): 74.4%
- % Gi (growth inhibition) (B16 melanoma; Experiment II, 200 mg/Kg): 32.0%
- Tumour Volume (B16 melanoma; Experiment II, 200 mg/Kg): 370 ± 37 mm^3
- % Gi (growth inhibition) (B16 melanoma; Experiment II, 400 mg/Kg): 34.0%
- % Gi (growth inhibition) (B16 melanoma; Experiment II, 800 mg/Kg): 63.4%
- % Gi (growth inhibition) (B16 melanoma; Experiment II, 1200 mg/Kg): 70.7%
- Growth inhibition of B16 melanoma (B16 melanoma; in words): dose-dependent linear growth inhibition; also recorded: significant reduction in size of s.c. inoculated melanoma
- Substrate for plasma MAO [2]: not, however, a substrate for plasma MAO
- Urinary excretion of unchanged compound, amount ([3]; 3 h after i.p. injection, 5.2 mg/mouse, unit printed ng): 7.23e-07 ± 2.7e-08 mg
- Urinary excretion of unchanged compound, amount ([3]; 8 h after i.p. injection, 5.2 mg/mouse): 1.034 ± 0.033 mg
- Urinary excretion of unchanged compound, amount ([3]; 24 h after i.p. injection, 5.2 mg/mouse): 1.089 ± 0.028 mg
- i.p. dose excreted as 4-S-CAP, amount ([3]; urine, i.p. injection): 0.066 ± 0.003 mg
- dose excreted at 3 h ([3]; urine, ip, 300 mg/kg, 3 h after i.p. injection, 5.2 mg/mouse, read-out: Urinary excretion of unchanged compound, % of dose): 13.9%
- dose excreted at 8 h ([3]; urine, ip, 300 mg/kg, 8 h after i.p. injection, 5.2 mg/mouse, read-out: Urinary excretion of unchanged compound, % of dose): 19.8%
- dose excreted at 24 h ([3]; urine, ip, 300 mg/kg, 24 h after i.p. injection, 5.2 mg/mouse, read-out: Urinary excretion of unchanged compound, % of dose): 20.4%
- Substrate for tyrosinase (mushroom tyrosinase): tyrosinase substrate
- Single dose toxicity level (in vivo): ~1,400 mg/kg of body weight
- LD50 (in vivo; ip): ≤ 1400 mg/kg
- MTD (in vivo; ip): 1200 mg/kg
- Colonies, % control (B16F10 melanoma colonies; 900 mg/kg i.p. daily for 14 days, day 26): 24.9%
- Number of B16F10 melanoma colonies (B16F10 melanoma colonies; in words): significantly reduced
- Melanoma lung colonies reduced to % of original volume (B16F10 melanoma colonies; summary statement): 25%

Compound: CC(N)CSc1ccc(O)cc1 (stereo not drawn) [α-Me-4-S-CAP]
- Depigmentation (black hair follicles; i.p., 300 mg/kg): 89%
- Depigmentation of new growth of black hair follicles (black hair follicles): i.p. administration induced more depigmentation than s.c.
- Irritation of the skin (black hair follicles; s.c. administration, plucked area): some irritation of the skin in the plucked area
- Depigmentation (black hair follicles; s.c., 300 mg/kg): 58%
- Cytotoxicity for follicular depigmentation (melanocytes): greatest cytotoxicity for follicular depigmentation
- Electron microscopy of melanocytes/melanosomes (melanocytes; i.p.): contained immature melanosomes at stages II and III
- Single dose toxicity level (in vivo): ~500 mg/kg of body weight

Compound: Oc1ccc(O)cc1 [hydroquinone]
- Stability [4]: very unstable
- Skin irritation (skin; hydroquinone preparations): cause skin irritation
- Permanent whitening of the skin (skin; prolonged period and high concentration): can also cause permanent whitening of the skin
